According to US20230066946A1, “1,5-DIPHENYLPYRAZOLYL-3-OXYALKYL ACIDS AND 1-PHENYL-5-THIENYLPYRAZOLYL-3-OXYALKYL ACIDS AND THE USE THEREOF FOR CONTROL OF UNWANTED PLANT GROWTH” (Bayer Aktiengesellschaft, priority 2019, published 2023):

Assays:
MATIN = assay: Post-emergence herbicidal action against MATIN; assay type: in vivo, Matricaria inodora; conditions: visual rating about 3 weeks after treatment
Summary of the method: (§1)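 Visual % damage (100% = dead, 0% = like untreated control) was scored about 3 weeks after foliar spraying of one-leaf-stage plants grown in sandy loam. Doses were 1280 or 320 g/ha, applied as aqueous WP/EC preparations with 0.5% additive in 600 litres per hectare water.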

AMARE [1] = assay: Post-emergence herbicidal action against AMARE; assay type: in vivo, Amaranthus retroflexus; conditions: visual rating about 3 weeks after treatment
Summary of the method: as §1

VERPE [2] = assay: Post-emergence herbicidal action against VERPE; assay type: in vivo, Veronica persica; conditions: 320 g/ha, visual rating about 3 weeks after treatment
Procedure: (§2) [table] Seeds of mono- and dicotyledonous weed plants are placed in plastic pots in sandy loam soil (twin sowing with one species each of mono- or dicotyledonous weed plants per pot), covered with soil and cultivated in a greenhouse under controlled growth conditions. 2 to 3 weeks after sowing, the test plants are treated at the one-leaf stage. The compounds of the invention, formulated in the form of wettable powders (WP) or as emulsion concentrates (EC), are applied to the green parts of the plants as aqueous suspension or emulsion with addition of 0.5% additive at a water application rate equivalent to 600 litres per hectare. After the test plants have been kept in the greenhouse under optimum growth conditions for about 3 weeks, the activity of the preparations is rated visually in comparison to untreated controls. For example, 100% activity=the plants have died, 0% activity=like control plants. Tables 5.1-5.16 below show the effects of selected compounds of the general formula (I) according to Tables 1 to 3 on various harmful plants at an application rate corresponding to 1280 or 320 g/ha, which have been obtained by the aforementioned experimental method.

PHBPU = assay: Post-emergence herbicidal action against PHBPU; assay type: in vivo, Pharbitis purpurea; conditions: 320 g/ha, visual rating about 3 weeks after treatment
Procedure: as §2

SETVI [3] = assay: Pre-emergence herbicidal action against SETVI; assay type: in vivo, Setaria viridis; conditions: 1280 g/ha, scored visually after about 3 weeks vs untreated controls
Summary of the method: (§3)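 Weed seeds were sown in sandy loam soil in pots and covered; compounds formulated as WP or EC were sprayed onto the covering soil as aqueous suspension/emulsion with 0.5% additive at 600 L/ha water. Application rate 1280 or 320 g/ha. Greenhouse grown; visual % activity vs untreated controls after about 3 weeks.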

STEME [4] = assay: Post-emergence herbicidal action against STEME; assay type: in vivo, Stellaria media; conditions: visual rating about 3 weeks after treatment
Summary of the method: as §1

ECHCG [5] = assay: Pre-emergence herbicidal action against ECHCG; assay type: in vivo, Echinochloa crus-galli; conditions: scored visually after about 3 weeks vs untreated controls, 100% = plants have died, 0% = like control plants
Excerpt: (§4) Seeds of mono- and dicotyledonous weed plants are placed in plastic pots in sandy loam soil (doubly sown with one species each of mono- or dicotyledonous weed plants per pot) and covered with soil. The compounds of the invention, formulated in the form of wettable powders (WP) or as emulsion concentrates (EC), are then applied onto the surface of the covering soil as aqueous suspension or emulsion with addition of 0.5% additive at a water application rate equivalent to 600 litres per hectare. After the treatment, the pots are placed in a greenhouse and kept under good growth conditions for the trial plants. After about 3 weeks, the effect of the preparations is scored visually in comparison with untreated controls as percentages. For example, 100% activity=the plants have died, 0% activity=like control plants. [table] Tables 4.1-4.15 below show the effects of selected compounds of the general formula (I) according to Tables 1 to 3 on various harmful plants at an application rate corresponding to 1280 or 320 g/ha, which have been obtained by the aforementioned experimental method.

STEME [6] = assay: Pre-emergence herbicidal action against STEME; assay type: in vivo, Stellaria media; conditions: scored visually after about 3 weeks vs untreated controls
Summary of the method: as §3

AMARE [7] = assay: Pre-emergence herbicidal action against AMARE; assay type: in vivo, Amaranthus retroflexus; conditions: scored visually after about 3 weeks vs untreated controls; for Pre-emergence action against AMARE in %: 1280 g/ha; for Pre-emergence action at 320 g/ha against AMARE in %: 100% = plants have died, 0% = like control plants
Summary of the method: as §3

SETVI [8] = assay: Post-emergence herbicidal action against SETVI; assay type: in vivo, Setaria viridis; conditions: 1280 g/ha, post-emergence at one-leaf stage, rated visually after about 3 weeks vs untreated controls
Procedure: as §2

ECHCG [9] = assay: Post-emergence herbicidal action against ECHCG; assay type: in vivo, Echinochloa crus-galli; conditions: 1280 g/ha, post-emergence at one-leaf stage, rated visually after about 3 weeks vs untreated controls
Procedure: as §2

VIOTR = assay: Post-emergence herbicidal action against VIOTR; assay type: in vivo, Viola tricolor; conditions: 320 g/ha, visual rating about 3 weeks after treatment
Procedure: as §2

POLCO = assay: Post-emergence herbicidal action against POLCO; assay type: in vivo, Polygonum convolvulus; conditions: 320 g/ha, visual rating about 3 weeks after treatment
Procedure: as §2

VERPE [10] = assay: Pre-emergence herbicidal action against VERPE; assay type: in vivo, Veronica persica; conditions: 320 g/ha, scored visually after about 3 weeks vs untreated controls
Excerpt: as §4

Compound	Post-emergence action against MATIN in % (MATIN; 1280 g/ha)	Post-emergence action against AMARE in % (AMARE [1]; 1280 g/ha)	Post-emergence action against VERPE in % (VERPE [2])	Post-emergence action against PHBPU in % (PHBPU)	Pre-emergence action against SETVI in % (SETVI [3])	Post-emergence action against STEME in % (STEME [4]; 1280 g/ha)	Pre-emergence action at 1280 g/ha against ECHCG in % (ECHCG [5])	Pre-emergence action against STEME in % (STEME [6]; 1280 g/ha)	Pre-emergence action against AMARE in % (AMARE [7])	Post-emergence action against SETVI in % (SETVI [8])	Post-emergence action against ECHCG in % (ECHCG [9])	Post-emergence action against MATIN in % (MATIN; 320 g/ha)	Post-emergence action against STEME in % (STEME [4]; 320 g/ha)	Post-emergence action against VIOTR in % (VIOTR)	Post-emergence action against POLCO in % (POLCO)	Pre-emergence action against STEME in % (STEME [6]; 320 g/ha)	Pre-emergence action at 320 g/ha against AMARE in % (AMARE [7])	Post-emergence action against AMARE in % (AMARE [1]; 320 g/ha)	Pre-emergence action against VERPE in % (VERPE [10])
COC(=O)COc1nn(-c2cccc(F)c2)c(-c2cccc(Cl)c2)c1C#N [I-038]	80%	90%	80%	80%															
CCOC(=O)COc1nn(-c2cc(F)c(F)cc2F)c(-c2cccc(F)c2)c1Cl [I-097]	100%				100%	100%	100%	100%	100%	90%	100%								
CCOC(=O)COc1nn(-c2ccc(F)cc2F)c(-c2ccccc2)c1Cl [I-100]	90%	90%	90%	90%	100%	90%	100%	100%	100%		90%	80%	80%	100%	90%	90%	100%	80%	100%
COC(=O)COc1nn(-c2ccc(F)cc2)c(-c2ccccc2)c1C#N [I-011]	90%		80%			80%	80%		90%			90%			80%				
COC(=O)C(C)Oc1nn(-c2c(F)cccc2F)c(-c2ccc(F)c(F)c2)c1Br (centres unmarked) [I-169]	90%	100%			100%	100%	100%	100%	100%	90%	90%								
CCOC(=O)COc1nn(-c2ccc(F)cc2F)c(-c2cccc(F)c2)c1Cl [I-098]	90%	100%			90%	90%	100%	100%	100%	90%	100%								
COC(=O)C(C)Oc1nn(-c2ccccc2)c(-c2cc(F)cc(F)c2)c1Cl (centres unmarked) [I-165, Methyl 2-{[4-chloro-5-(3,5-difluorophenyl)-1-phenyl-1H-pyrazol-3-yl]oxy}propanoate]	100%	100%	80%	80%	100%	100%		100%	100%	90%				80%	80%		90%		100%
